US10815197B2, “N-sulfonyl benzamides as voltage-gated sodium channel inhibitors” (SHANGHAI HAIYAN PHARMACEUTICAL TECHNOLOGY CO., LTD., priority 2016, dated 2020)
“Also recorded” adds a separate entry of the source.

Experiments:
[1] = test system: SNL-induced cold allodynia in rats; assay: Cold allodynia in SNL (spinal nerve ligation) rats; type: in vivo, rat
From the text: Assay 3: Cold Allodynia in SNL
The experimental animals were male Sprague-Dawley rats, weighing 140-150 g at the beginning of the experiment. The animals were purchased from Slack company, and food and water were supplied ad lib after purchase. Rats were group-housed, four rats/cage, and individually identified by marking on the tail.
Test Compound and Grouping:
Vehicle: 5% dimethylacetamide(Sinopharm Technology), 5% solutol (Sigma) and 90% saline
Positive control: Pregabalin;
Test compound: compound Z-164;
The positive control and solvent composition of the test compound are 5% dimethylacetamide, 5% solutol and 90% saline.
30 mg/kg Compound Z-164:1.23 mL of dimethylacetamide was added to 148.11 mg of compound Z-164, stirred well until fully dissolved, and then 1.23 mL solutol was added and mixed well. Final volume was made up with 90% saline to 21.44 mL and mixed well before oral administration.
30 mg/kg Pregabalin: 1.08 mL of dimethylacetamide was added to 129.48 mg of Pregabalin, stirred well until fully dissolved, and then 1.08 mL solutol was added and mixed well. Final volume was made up with 90% saline to 21.58 mL and mixed well before oral administration.
1.1. Spinal Nerve Ligation (SNL) model • Surgical procedures are performed aseptically. • The surgical instruments (scissors, tweezers, scalpels, surgical cotton, sutures, retractor) are sterilized prior to surgery. • Animals were anesthetized with pentobarbital (50 mg/kg, i.p.). A toe pinch was used to ensure that the animals were fully anesthetized prior to surgery. Put ophthalmic ointment in the animal's eyes to prevent the corneas from drying out. • The fur on the surgical area of animal's lower body was shaved, and the skin of the surgical area was swabbed with 3 rounds of Betadine and 70% ethanol. The skin was allowed to dry before surgery. • A longitudinal incision will be made by scalpel at the lower lumbar and sacral levels, exposing the paraspinal muscles on the left side. The retractor was used to separate the muscles and tissues to expose the vertebra. • The left L5 and L6 spinal nerves will be isolated and tightly ligated with 6-0 silk thread. • The wound was closed with sutures. • The surgical instruments were cleaned, and sterilized by using a glass bead sterilizer. • Animals were placed on the electric blanket after surgery. Inject 5 ml sterile saline to prevent dehydration. The animals were returned to their home cage after fully awake (walking around).
1.2. Baseline Test of Cold Allodynic and Grouping
The baseline of cold allodynic was measured in rats two days before dosing. Use a pipette to apply 100 μl of acetone to the animal's lateral hind paw skin and the time of slapping, flinching, lifting, licking of the affected paw were recorded for one minute. Acetone was applied twice in total and the two applications were 10 minutes apart. The sum of the two times was recorded as cold allodynic time in rats. The rats were grouped randomized according to the results of baseline test of cold allodynic the day before dosing.
1.3. Cold Allodynic Testing
A pipette was used to apply 100 μl of acetone to the animal's lateral hind paw skin two hours after dosing and the time of slapping, flinching, lifting, licking of the affected paw were recorded for one minute. Acetone was applied twice and the two applications were 10 minutes apart. The sum of the two times was recorded as cold allodynic time in rats.
Oral administration was performed two hours before cold allodynic testing.
1.5. Data Collection and Analysis
Data were collected with Excel and analyzed with Prism.

[2] = biological target: T1, hERG potassium ion channel (Homo sapiens, UniProt Q12809); assay: Effect on hERG potassium ion channel (CHO hERG cells, manual patch clamp); type: cell-based; conditions: final 10 μM test concentration, read-out: hERG inhibitory concentration IC50
T1 construct: host or cells: CHO
T1 sequence (Q12809 whole entry): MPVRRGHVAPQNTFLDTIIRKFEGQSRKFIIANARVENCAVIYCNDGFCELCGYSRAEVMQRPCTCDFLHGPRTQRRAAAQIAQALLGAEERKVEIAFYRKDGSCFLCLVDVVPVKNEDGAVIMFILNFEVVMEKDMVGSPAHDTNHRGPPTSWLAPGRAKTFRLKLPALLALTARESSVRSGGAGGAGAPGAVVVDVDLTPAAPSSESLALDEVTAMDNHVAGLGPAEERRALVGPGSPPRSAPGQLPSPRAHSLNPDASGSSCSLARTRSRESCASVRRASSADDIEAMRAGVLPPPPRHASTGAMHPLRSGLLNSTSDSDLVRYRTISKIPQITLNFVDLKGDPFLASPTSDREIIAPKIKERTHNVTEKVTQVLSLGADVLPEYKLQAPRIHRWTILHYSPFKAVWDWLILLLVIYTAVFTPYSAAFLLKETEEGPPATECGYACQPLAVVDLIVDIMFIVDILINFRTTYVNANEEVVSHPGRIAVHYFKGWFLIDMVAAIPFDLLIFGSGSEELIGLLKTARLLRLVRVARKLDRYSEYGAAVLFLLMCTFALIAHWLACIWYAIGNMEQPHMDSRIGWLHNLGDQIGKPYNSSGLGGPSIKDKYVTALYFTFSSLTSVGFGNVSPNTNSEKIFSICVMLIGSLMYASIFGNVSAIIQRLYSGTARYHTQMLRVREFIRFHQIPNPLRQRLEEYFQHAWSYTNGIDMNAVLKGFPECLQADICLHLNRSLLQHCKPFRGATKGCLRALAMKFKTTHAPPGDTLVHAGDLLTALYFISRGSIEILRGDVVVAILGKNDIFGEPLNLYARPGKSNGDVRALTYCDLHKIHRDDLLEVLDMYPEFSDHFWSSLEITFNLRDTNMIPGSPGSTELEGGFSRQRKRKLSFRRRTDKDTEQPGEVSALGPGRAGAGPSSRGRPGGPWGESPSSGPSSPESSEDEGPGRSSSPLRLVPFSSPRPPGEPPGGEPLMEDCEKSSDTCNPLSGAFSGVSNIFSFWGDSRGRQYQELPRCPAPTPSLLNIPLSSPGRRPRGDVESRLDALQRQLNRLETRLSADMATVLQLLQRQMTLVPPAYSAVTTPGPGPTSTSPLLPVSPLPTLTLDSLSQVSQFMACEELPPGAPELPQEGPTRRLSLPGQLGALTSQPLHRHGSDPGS
Description: Assay 2: Effect on hERG Potassium Ion Channel 2.1 Cell Culture 2.1.1 Cells used in this experiment were CHO cell lines (supplied by Sophion Bioscience, Denmark) which were hERG cDNA transfectant and stably express hERG channels, and cell progeny was P15. Cells were cultured in medium containing the following ingredients Invitrogen): Ham's F12 medium, 10% (v/v) inactivated fetal bovine serum, […] Geneticin. 2.1.2 CHO hERG cells were grown in Petri dishes containing the above medium and cultured in an incubator containing 5% CO2 at 37° C. CHO hERG cells were transferred onto round glass plates in Petri dishes, and grown on the same culture medium under culture conditions as above for 24 h to 48 h prior to the electrophysiological experiments, and the density of CHO hERG cells on each round glass plate needs to meet the requirements that the vast majority of cells are independent and individual. 2.2 Experimental Solution The following solutions (supplied by Sophion) were used for electrophysiological recording as shown in Table 3. The reagents used in this test were provided by Sigma. [table] 2.3 Electrophysiological Recording System In this experiment, whole-cell current recording was performed using a manual patch clamp system (HEKA EPC-10 signal amplification and digital conversion system, purchased from HEKA Electronic, Germany). The round glass slide, surface of which CHO hERG cells were grown on was placed in an electrophysiological recording slot under an inverted microscope. Extracellular fluid was used for steady perfision in recording slot (approximately 1 ml per minute). A conventional whole-cell patch clamp current recording technique was used in the experiment. Unless otherwise specified, experiments were performed at normal room temperature (25° C.). Cell clamping was at −80 mV. Cell clamping voltage depolarized to +20 mV to activate hERG potassium channel, clamping to −50 mV after 5 sec to eliminate inactivation and generate tail currents. The tail current peak was used as a value for hERG current. The hERG potassium current recorded in the above steps could be superfused for test drug after the steady perfusion state of the extracellular fluid in the recording slot is stabilized until the inhibition of the hERG current by the drug reached a steady state. The coincidence of the last three consecutive current recording lines was generally used as a criterion to determine whether the state is stable. After reaching a steady state, perfused with extracellular fluid until hERG current returned to the value before the drug adding. One or more drugs could be tested on a single cell, or multiple concentrations of the same drug, but needed to be rinsed with extracellular fluid between different drugs. […] 2.4 Compound Treatment and Dilution The compound was firstly dissolved in DMSO to a concentration of 10 mM and then the compound was diluted 1000-fold to the final […] test concentration using an extracellular solution. The final concentration of DMSO in the compound test solution was equal to 0.1%. […] All stock solutions and test solutions were subjected to regular 5-10 minute sonication and shaken to ensure complete dissolution of the compound. 2.5 Data Analysis The test data were analyzed by the data analysis software provided by HEKA Patchmaster (V2x73.2), Microsoft Excel and Graphpad Prism 5.0.

[3] = 30 mg/kg p.o., two hours after dosing

SMILES | IC50 [2] | also measured
Cc1cc(N2CCN(Cc3cc(F)c(C(=O)NS(=O)(=O)C4CC4)cc3Cl)CC2)ccc1Cl [Compound Z-164] | – | Anti-allodynia Effect (mean, %) [1, 3]: 39.7%; Response duration (mean, s) the next day (Baseline) [1, 3]: 24.327 s; inhibition of SNL-induced cold allodynia (in words) ([1]; 30 mg/kg, 2 hr post oral administration): statistically significant inhibitory effect; also recorded: inhibition of SNL-induced cold allodynia; Response duration (mean, s) the first day (Baseline) ([1]; acetone cold allodynia, baseline before dosing): 36.831 s
C[C@@H]1CN(c2ccc(Cl)c(Cl)c2)CCN1Cc1cc(F)c(C(=O)NS(=O)(=O)C2CC2)cc1Cl [Compound Z-172, (R)-5-Chloro-N-(cyclopropylsulfonyl)-4-((4-(3,4-dichlorophenyl)-2-methylpiperazin-1-yl)methyl)-2-fluorobenzamide] | > 10 µM | –
O=C(NS(=O)(=O)C1CC1)c1cc(Cl)c(CN2CCN(c3ccc(C4CC4)c(Cl)c3)CC2)cc1F [Compound Z-173] | > 10 µM | –
Cc1ccc(N2CCN(Cc3cc(F)c(C(=O)NS(=O)(=O)C4CC4)cc3Cl)CC2)cc1Cl [Compound Z-177] | > 10 µM | –
CCc1cc(N2CCN(Cc3cc(F)c(C(=O)NS(=O)(=O)C4CC4)cc3Cl)CC2)ccc1Cl [Compound Z-178] | > 10 µM | –
CCc1cc(C(=O)NS(=O)(=O)C2CC2)c(F)cc1CN1CCN(c2ccc(OC(F)(F)F)cc2)CC1 [Compound Z-189, N-(cyclopropylsulfonyl)-5-ethyl-2-fluoro-4-((4-(4-(trifluoromethoxy)phenyl)piperazin-1-yl)methyl)benzamide] | > 10 µM | –
